Assay results published in US7625948B2, “Ester compound and medicinal use thereof” (Japan Tobacco Inc., priority 2002, dated 2009).

Tests used:
Japanese white rabbits = assay: Test Example 5: combination use test in cholesterol-loaded rabbit model (plasma cholesterol); assay type: in vivo; details: 10 mg/kg in high cholesterol diet, from grouping to the 4th day
Method: Japanese white rabbits (male, 19 weeks of age, JW, purchased from Kitayama Labes Co., Ltd.) were fed previously in such a way that they were fed a high cholesterol diet (0.3% cholesterol+3% peanut oil-added RC-4, Product of Oriental Yeast Co., Ltd.) of 70 g/day under limited feeding for one day. The rabbits thus fed were used as a cholesterol-loaded rabbit model, and the grouping of such model was carried out in such a way that there might be no variation in the amount of plasma cholesterol among each group (five rabbits/group). […] The rabbits were fed 70 g of each diet every morning. Blood was collected from auricular artery 6 hours after the feeding on the 4th day of the administration, and cholesterol level in plasma was assayed. In the table, increased amount of plasma cholesterol during from the time of grouping to the 4th day was shown.

[1] = Test Example 7: metabolic stability test in human liver S9; assay type: in vitro ADME; details: human liver S9, 2 mg protein/mL, 37° C.
Method: (§1) Metabolic Stability Test in Liver S9 and Small Intestine S9
(§2) Human and hamster liver S9 (final concentration: 2 mg protein/mL), and human and hamster small intestine S9 (final concentration: 2 mg protein/mL) were each suspended in 100 mM potassium phosphate buffer (pH 7.4, containing β-nicotinamide adenine dinucleotide phosphate: 1.3 mM, D-glucose-6-phosphate: 3.3 mM, magnesium chloride: 3.3 mM, glucose-6-phosphate dehydrogenase: 0.4 U/mL). The suspensions were mixed with a solution of a sample (Example 2-5) in DMSO. The solutions were incubated at 37° C. for 0, 10 and 60 minutes, and an organic solvent was added thereto. The solutions were centrifuged, and the concentration of the sample (unchanged form) in the supernatant was determined by high performance liquid chromatography/mass spectrometry (LC/MS). Based on the data obtained, remaining rate (%) was calculated according to the following equation.
(§3) Remaining rate(%)=amount of sample 10 or 60 minutes after incubation/amount of sample at zero time after incubation×100

[2] = Test Example 7: metabolic stability test in hamster liver S9; assay type: in vitro ADME; details: hamster liver S9, 2 mg protein/mL, 37° C.
Method: as §1, §2, §3

[3] = Test Example 7: metabolic stability test in human small intestine S9; assay type: in vitro ADME; details: human small intestine S9, 2 mg protein/mL, 37° C.
Method: as §1, §2, §3

[4] = Test Example 7: metabolic stability test in hamster small intestine S9; assay type: in vitro ADME; details: hamster small intestine S9, 2 mg protein/mL, 37° C.
Method: as §1, §2, §3

Remaining rate (%) after 10 min. ([1]; 10 min): 7.9% | Remaining rate (%) after 60 min. ([1]; 60 min): 4.3% | Remaining rate (%) after 10 min. ([2]; 10 min): 2.4% | Remaining rate (%) after 60 min. ([2]; 60 min): 0% | Remaining rate (%) after 10 min. ([3]; 10 min): 97.6% | Remaining rate (%) after 60 min. ([3]; 60 min): 91.5% | Remaining rate (%) after 10 min. ([4]; 10 min): 29.0% | Remaining rate (%) after 60 min. ([4]; 60 min): 14.1%
Compound: CCOC(=O)C(COC(=O)Cc1ccc(NC(=O)c2ccccc2-c2ccc(C(F)(F)F)cc2)c(C(=O)N(C)C)c1)(C(=O)OCC)c1ccccc1 [Example 2-5]
Increased amount of total cholesterol (Japanese white rabbits): 8.6 mg/dL
